In PubChem BioAssay AID2060501 (Molecular Pharmacology Branch, DTP, NCI, 2025):

Tested on: 282377-053-R-J1-PDC complex spheroids, viability
Assay: Anticancer human tumor 282377-053-R-J1-PDC patient-derived colon adenocarcinoma cell line growth inhibition [GQUAD]
Details: for IC50: curve of first compound; for viability, T/C: stronger effect = lower value
Source text: DNA G-quadruplex Stabilizer Agents in Combinations in Complex Spheroids
A high-throughput screen of multi-cell type tumor spheroids was designed to identify active combinations of DNA G-quadruplex stabilizer agents and targeted small molecules. Complex spheroids include a stromal component modeled by human endothelial cells (HUVEC) and fibroblasts modeled by human mesenchymal stem cells (MSCs). The concentration ranges selected for each drug and investigational agent were based upon clinically achievable concentrations if the clinical Cmax of the agent was known.
Compounds. The drugs and investigational agents: pidnarulex (CX-5461; NSC782164), APTO-253 (NSC789042), BRACO-19 (NSC847499), peposertib (NSC802822), ceralasertib (NSC780249), elimusertib (NSC800525), camonsertib (NSC841442), AZD-1390 (NSC803789), olaparib (NSC753686), talazoparib (NSC767125), ART-558 (NSC835418), sotorasib (NSC818433), MRTX-1133 (NSC836407), SN-38 (NSC673596), topotecan (NSC609699), etoposide (NSC141540), doxorubicin (NSC123127), gemcitabine (NSC613327), 5-fluorouracil (NSC19893), paclitaxel (NSC125973), vemurafenib (NSC761431), panobinostat (NSC761190), R-306465 (JNJ-16241199; NSC773264), adavosertib (NSC754352), TP-3654 (NSC805149), carboplatin (NSC241240), KSQ-4279 (NSC840948), and staurosporine (NSC755774) were obtained from the National Cancer Institute (NCI) Developmental Therapeutics Program Chemical Repository (34). The FDA-approved anticancer drug set is available from the NCI Developmental Therapeutics Program. […] The stock solutions were prepared in dimethyl sulfoxide (DMSO, Sigma-Aldrich, St. Louis, MO, cat. D2650) at 800-fold the tested concentration and stored at -70 degrees C prior to their use. All drugs and investigational agents were tested over a range starting from a high concentration at or near the clinical Cmax and decreasing in half-log increments. If the clinical Cmax for an agent had not been determined, the highest concentration tested was 10 microM.
2.3 Cell Culture. All cells were maintained in an incubator at 37 degrees C and 5% CO2 with 95% humidity. The PDC lines were cultured according to standard operating procedures established by the NCI PDMR. All PDCs were thawed and cultured in Matrigel-coated flasks prepared with a working solution of 1X Ham's F-12 nutrient mix, without supplementation (Invitrogen, cat. 11765054), 100 U/mL penicillin-streptomycin (Invitrogen, cat. 15140122), and 2.5% Matrigel (Corning Inc., cat. 354248) for the first three passages. The 857933-349-R-J2-PDC line was cultured in 6C/Colon 1B media, which includes advanced DMEM/F-12 (Thermo Fisher Scientific, cat. 12634028), 10 mM HEPES (Thermo Fisher Scientific, cat. 15630080), 1X GlutaMAX supplement (Thermo Fisher Scientific, cat. 35050061), 0.1 mg/mL primocin (InvivoGen, cat. ant-pm-2), 10% defined fetal bovine serum, heat inactivated (HyClone Laboratories Inc., cat. SH30070.03HI), 50% L-WRN conditioned media (ATCC, cat. CRL-3276), 1.25 mM N-Acetyl-L-cysteine (Sigma-Aldrich, cat. A9165), 10 mM nicotinamide (Sigma-Aldrich, cat. N0636), 1X B-27 supplement (Thermo Fisher Scientific, cat. 17504044), 1X N-2 supplement (Thermo Fisher Scientific, cat. 17502048), 10 microM Y-27632 dihydrochloride (Tocris Bioscience, cat. 1254), and 50 ng/mL human EGF recombinant protein (Thermo Fisher Scientific, cat. PHG0311). The 485176-168-R4-J1-PDC line was cultured in Panc media, which includes all 6C/Colon 1B media components plus 100 ng/mL human FGF-10 (Thermo Fisher Scientific, cat. 100-26), 500 nM SB-431542 (Selleckchem, cat. S1067), and gastrin (Tocris, cat. 3006).
[…]
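Also: spheroids exposed to compounds for 7 days before readout.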
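For viability, T/C in this document: percent of vehicle DMSO control viability with 100% = untreated-like growth.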

C=CCn1c(=O)c2cnc(Nc3ccc(N4CCN(C)CC4)cc3)nc2n1-c1cccc(C(C)(C)O)n1 + CN(C)c1ccc(Nc2c3ccc(NC(=O)CCN4CCCC4)cc3nc3cc(NC(=O)CCN4CCCC4)ccc23)cc1
IC50 (second compound 0.0316 µM): 1910 nM
IC50 (second compound 0.1 µM): 1980 nM
IC50 (second compound 0.316 µM): 2040 nM
IC50 (second compound 1 µM): 1860 nM
IC50 (second compound 3.16 µM): 1800 nM
IC50 (second compound 10 µM): 2320 nM
viability, T/C (second compound 0.0316 µM, first compound 0.0316 µM): 94.2%
viability, T/C (second compound 0.0316 µM, first compound 0.1 µM): 99.9%
viability, T/C (second compound 0.0316 µM, first compound 0.316 µM): 83.3%
viability, T/C (second compound 0.0316 µM, first compound 1 µM): 75.2%
viability, T/C (second compound 0.0316 µM, first compound 3.16 µM): 30.8%
viability, T/C (second compound 0.0316 µM, first compound 10 µM): 16.7%
viability, T/C (second compound 0.1 µM, first compound 0.0316 µM): 108%
viability, T/C (second compound 0.1 µM, first compound 0.1 µM): 95.3%
viability, T/C (second compound 0.1 µM, first compound 0.316 µM): 82.7%
viability, T/C (second compound 0.1 µM, first compound 1 µM): 73.3%
viability, T/C (second compound 0.1 µM, first compound 3.16 µM): 33.9%
viability, T/C (second compound 0.1 µM, first compound 10 µM): 15.1%
viability, T/C (second compound 0.316 µM, first compound 0.0316 µM): 105%
viability, T/C (second compound 0.316 µM, first compound 0.1 µM): 84.8%
viability, T/C (second compound 0.316 µM, first compound 0.316 µM): 74.5%
viability, T/C (second compound 0.316 µM, first compound 1 µM): 90.1%
viability, T/C (second compound 0.316 µM, first compound 3.16 µM): 26.5%
viability, T/C (second compound 0.316 µM, first compound 10 µM): 16.1%
viability, T/C (second compound 1 µM, first compound 0.0316 µM): 85.2%
viability, T/C (second compound 1 µM, first compound 0.1 µM): 90.9%
viability, T/C (second compound 1 µM, first compound 0.316 µM): 94.2%
viability, T/C (second compound 1 µM, first compound 1 µM): 76.4%
viability, T/C (second compound 1 µM, first compound 3.16 µM): 27.5%
viability, T/C (second compound 1 µM, first compound 10 µM): 16.7%
viability, T/C (second compound 3.16 µM, first compound 0.0316 µM): 92.8%
viability, T/C (second compound 3.16 µM, first compound 0.1 µM): 82.5%
viability, T/C (second compound 3.16 µM, first compound 0.316 µM): 92.8%
viability, T/C (second compound 3.16 µM, first compound 1 µM): 68.5%
viability, T/C (second compound 3.16 µM, first compound 3.16 µM): 31.8%
viability, T/C (second compound 3.16 µM, first compound 10 µM): 16.1%
viability, T/C (second compound 10 µM, first compound 0.0316 µM): 86.7%
viability, T/C (second compound 10 µM, first compound 0.1 µM): 78.3%
viability, T/C (second compound 10 µM, first compound 0.316 µM): 104%
viability, T/C (second compound 10 µM, first compound 1 µM): 78.4%
viability, T/C (second compound 10 µM, first compound 3.16 µM): 39.1%
viability, T/C (second compound 10 µM, first compound 10 µM): 15.3%
